Measured values published in patent publication US8596557B2, “Pest control aerosol sprayer” (Fumakilla Limited, priority 2008, dated 2013).

Experiments:
[1] = Back-fire test of aerosol sprayers loaded with various gases (Test Example 1); settings: sprayed 5 seconds towards burner flame, sprayer at 25° C.
Protocol: (§1) Test Example 1 relates to back-fire tests for the aerosol sprayer using various gases. Specifically, aerosol sprayers loaded with various gases acting as both propellant and refrigerant were prepared. And, after these aerosol sprayers were immersed in a thermostatic bath at 25° C. for 1 hour, each of them was arranged with the flame, as a fire origin, of an ignited burner so that the spray nozzle of its head cap and the flame lied horizontally in the same height. And, each gas was sprayed from the spray nozzle of the head cap in the aerosol sprayer for 5 seconds towards the flame as the fire origin to check if there was a backfire. This was repeated a plurality of times. Here, the fire origin was spaced from the spray nozzle at a distance of 15 cm and at a distance of 60 cm.
Further, HFO-1234ze as another alternative for chlorofluorocarbon was also subjected to the same backfire tests as for HFC-152a and HFC-134a in Text Example 1 mentioned above.

Periplaneta fuliginosa = assay: Biological test: knockdown and fatality after 3 second spray from 50 cm (Test Example 3); format: in vivo; settings: female adult
Protocol: (§2) In Test Example 3, modes of spraying from the spray nozzle 10 in the head cap 2 were examined. This is to examine the refrigerating and behavioral inhibiting effects on a noxious insect by a noxious insect behavioral inhibitor A which is sprayed from the spray nozzle 10. Specifically, a wooden flooring was prepared on which a glass ring (having a diameter of 9 cm and a height of 6 cm) was placed. […] And, one female adult of Periplaneta fuliginosa is introduced inside of the glass ring. On the other hand, two different head caps were prepared, one provided with a single spray nozzle 10 and the other provided with a pressure reducer means comprising an upper and a lower spray nozzle 10a and 10b. And, using them, the noxious insect behavioral inhibitor A is sprayed for 3 seconds toward the Periplaneta fuliginosa from a distance of 50 cm therefrom, and the state of the Periplaneta fuliginosa thereafter (possible knockdown after 2 minutes and after 1 hour and fatality after 24 hours) is observed. Further, the minimum temperatures of a target area of spraying are measured. And, the room temperature is 25° C., and the noxious insect behavioral inhibitor A is HFC-152a alone (100%). The two head caps 2, the one with the single spray nozzle 10 and the other with the two spray nozzles 10, are made to spray substantially at a identical rate of spraying.
(§3) Also, in Test Example 3, noxious insect behavioral inhibitors containing HFO-1234ze alone (100%), at a content of 75% and at a content of 50% were examined. What is mixed is dimethyl ether.

[2] = Mode of spraying: average particle size and minimum temperature of target area (Test Example 3); format: physicochemical
Protocol: as §2, §3

[3] = Back-fire test on content of HFC-152a / HFO-1234ze mixed with LPG or dimethyl ether (Test Example 2); settings: varied mixture ratio, sprayed 5 seconds towards burner flame
Protocol: as §1, with “In Test” for “Test”, “Example 2, aerosol sprayers using HFC-152a as an alternative for chlorofluorocarbon were tested on its content. This, too,” for “Example 1”, “back-fire tests.” for “back-fire tests for the aerosol sprayer using various gases.”, “with HFC-152a alone” for “with various gases acting as both propellant”, “and mixtures of HFC-15a with LPG or dimethyl ether (in varied mixture ratio)” for “and refrigerant”, “15” for “15 cm and at a distance of 60”
Further, HFO-1234ze as another alternative for chlorofluorocarbon was also tested on its content as in Text Example 2 above. Specifically, aerosol sprayers loaded with HFO-1234ze alone and mixtures of HFO-1234ze with LPG or dimethyl ether (in varied mixture ratio) were prepared. […]

[4] = single spray nozzle (1.5 mm diameter), n = 10
[5] = two spray nozzles (upper 1.5 mm, lower 1.8 mm), n = 10
[6] = two spray nozzles (upper 1.5 mm, lower 1.8 mm)

Row | Structure (SMILES) | Backfire, 15 cm distant from Fire Origin [1] | Backfire, 60 cm distant from Fire Origin [1] | Fatality after 24 hours (Periplaneta fuliginosa; [4]) | Knockdown rate after 1 hour (Periplaneta fuliginosa; [4]) | Knockdown rate after 2 minutes (Periplaneta fuliginosa; single spray nozzle (1.5 mm diameter), n = 10, room temperature 25° C.) | Fatality after 24 hours (Periplaneta fuliginosa; [5]) | Knockdown rate after 2 minutes (Periplaneta fuliginosa; [5]) | Knockdown rate after 1 hour (Periplaneta fuliginosa; [5]) | Average particle size ([2]; single spray nozzle (1.5 mm diameter)) | Average particle size [2, 6] | Backfire, 15 cm distant from Fire Origin (content test) [3]
1 | CC(F)F [HFC-152a (100%), 1,1-difluoroethane] | Not Backfired | Not Backfired | 10% | 40% | 90% | 100% | 100% | 100% | 57 μm | 97 μm | Not Back-fired
2 | FC=CC(F)(F)F [HFO-1234ze (100%), 1,3,3,3-tetrafluoropropene] | Not Backfired | Not Backfired |  |  |  | 60% | 100% | 100% |  | 120 μm | Not Back-fired
3 | COC [dimethyl ether (100%), dimethyl ether, reference compound] | Backfired | Backfired |  |  |  |  |  |  |  |  | 
4 | FCC(F)(F)F [HFC-134a (100%)] | Not Backfired | Not Backfired |  |  |  |  |  |  |  |  | 
